This is an account of results in patent US20130217664A1, “NOVEL COMPOUNDS USEFUL FOR THE TREATMENT OF DEGENERATIVE AND INFLAMMATORY DISEASES” (priority 2012, published 2013).

The structures appear in SMILES notation. Read-outs that look alike come from different tables or passages of the source.

Experiment [1] concerns pSTAT1(2)-luciferase reporter in HeLa cells triggered with human OSM. Briefly: JAK-STAT signalling assay. The following applies: HeLa cells, pSTAT1(2)-luciferase reporter, human OSM 33 ng/mL, read-out: JAK-STAT IC50. In kind it is cell-based. Put shortly:
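HeLa cells transiently co-transfected with pSTAT1(2)-luciferase and LacZ control reporter, preincubated with compound 60 min, then stimulated with human OSM (33 ng/mL final) overnight at 37 °C. Luciferase read by luminescence; percent inhibition from vehicle and no-trigger controls, EC50 from dose-response.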
(Reporter assays use an easily measured gene product as a stand-in for the process of interest.)

The subject of the next experiment is BA/F3 cell line. Nature of the experiment: BA/F3 viability assay. The following applies: Mus musculus, BaF3, 48 h, read-out: BA/F3 IC50.
The target in the next experiment is T1, human JAK1 (Homo sapiens, UniProt P23458).
T1 construct: catalytic domain, amino acids 866-1154; catalog number PV4774; purchased Invitrogen PV4774
T1 sequence (P23458 866-1154): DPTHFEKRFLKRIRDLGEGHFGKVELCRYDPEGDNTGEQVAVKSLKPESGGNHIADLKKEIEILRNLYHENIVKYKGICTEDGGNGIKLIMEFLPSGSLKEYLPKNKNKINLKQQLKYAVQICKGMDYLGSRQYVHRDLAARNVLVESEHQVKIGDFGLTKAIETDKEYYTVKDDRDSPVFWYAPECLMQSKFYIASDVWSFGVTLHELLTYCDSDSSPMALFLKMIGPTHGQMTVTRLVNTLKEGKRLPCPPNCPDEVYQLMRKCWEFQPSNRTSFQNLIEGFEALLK
Briefly: JAK1 inhibition assay (polyGT substrate / Ulight-JAK1 peptide). The following applies: recombinant human JAK1 catalytic domain; polyGT or Ulight-JAK1 peptide assay. The format is biochemical. The gist of the method: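 Two formats. PolyGT radiometric: 45 min at 30 °C, stopped with phosphoric acid, counted as cpm. Ulight-JAK1 peptide: 60 min at room temperature, stopped with Eu-anti-phosphotyrosine/EDTA, read as RFU. Percent inhibition normalised to vehicle and 10 μM staurosporine.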

A further experiment deals with CTLL-2 cell line. Nature of the experiment: CTLL2 viability assay. The format is cell-based. The conditions noted are these: Mus musculus, IL-2 dependent CTLL2 viability, 24 h, ATP-lite. From the text: The protocol describes the methods to analyse the activity of compounds on their ability to sustain the IL2-dependent viability of CTLL2.
Final DMSO concentration was 0.1%.

A further experiment has as its target T2, human JAK3 (Homo sapiens, UniProt P52333).
T2 construct: catalytic domain (amino acids 781-1124; catalog number PV3855); purchased Invitrogen PV3855
Briefly: JAK3 inhibition assay. The format is biochemical. The following applies: recombinant human JAK3 catalytic domain; polyGT substrate. Put shortly: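 Radiometric kinase assay: 0.5 ng JAK3 with 2.5 μg polyGT in Tris pH 7.5/MgCl2 buffer, 1 μM ATP plus 0.25 μCi 33P-γ-ATP, 1% DMSO, 45 min at 30 °C, stopped with phosphoric acid.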

The target in a further experiment is T3, human TYK2 (Homo sapiens, UniProt P29597).
T3 construct: catalytic domain (amino acids 871-1187; catalog number 08-147); purchased Carna Biosciences 08-147
T3 sequence (P29597 871-1187): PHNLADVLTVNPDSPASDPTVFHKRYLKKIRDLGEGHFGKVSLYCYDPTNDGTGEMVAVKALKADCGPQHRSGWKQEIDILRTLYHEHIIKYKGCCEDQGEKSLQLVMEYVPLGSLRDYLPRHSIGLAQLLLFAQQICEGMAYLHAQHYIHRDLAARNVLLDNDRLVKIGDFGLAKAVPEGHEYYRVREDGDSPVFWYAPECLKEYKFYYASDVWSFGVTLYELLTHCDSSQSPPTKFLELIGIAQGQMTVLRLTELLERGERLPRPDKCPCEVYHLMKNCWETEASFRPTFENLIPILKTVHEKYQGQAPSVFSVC
Briefly: TYK2 inhibition assay. In kind it is biochemical. The following applies: recombinant human TYK2 catalytic domain, polyGT substrate. The gist of the method: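 Radiometric kinase reaction run 90 min at 30 °C, stopped with phosphoric acid, washed and scintillation-counted.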

T2 sequence (P52333 781-1124): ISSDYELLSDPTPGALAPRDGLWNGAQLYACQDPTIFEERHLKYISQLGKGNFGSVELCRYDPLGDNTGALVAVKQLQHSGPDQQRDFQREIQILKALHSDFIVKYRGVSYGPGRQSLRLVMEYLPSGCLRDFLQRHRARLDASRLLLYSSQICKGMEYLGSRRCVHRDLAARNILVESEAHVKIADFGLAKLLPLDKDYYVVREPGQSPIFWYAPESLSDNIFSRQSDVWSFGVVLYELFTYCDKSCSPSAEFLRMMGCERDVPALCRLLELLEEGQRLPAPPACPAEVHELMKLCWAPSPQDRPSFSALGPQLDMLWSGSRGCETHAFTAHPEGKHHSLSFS

Take `CCc1cc(C2=CCN(C(=O)COC)CC2)ccc1N(C)c1cc2c(cn1)ncn2C` [Compound 199, 1-(4-(3-ethyl-4-(methyl(1-methyl-1H-imidazo[4,5-c]pyridin-6-yl)amino)phenyl)-5,6-dihydropyridin-1(2H)-yl)-2-methoxyethanone]: the IC50 is 1 to 500 nM in experiment [1] (Homo sapiens, HeLa); 1 to 5 µM with BA/F3 cell line; 0.01 to 100 nM on human JAK1; above 1000 nM in the experiment with CTLL-2 cell line; 0.01 to 100 nM at human JAK3; 0.01 to 100 nM on human TYK2.
As to `CCc1cc(-c2cn[nH]c2)ccc1N(C)c1cc2c(cn1)ncn2C` [Compound 210, N-(2-ethyl-4-(1H-pyrazol-4-yl)phenyl)-N,1-dimethyl-1H-imidazo[4,5-c]pyridin-6-amine], the IC50 is 1 to 500 nM in experiment [1] (Homo sapiens, HeLa); 0.001 to 1 µM with BA/F3 cell line; 0.01 to 100 nM at human JAK1; above 1000 nM with CTLL-2 cell line; 0.01 to 100 nM on human JAK3; 0.01 to 100 nM on human TYK2.
Consider `CCc1cc(CNS(=O)(=O)C2CC2)ccc1N(C)c1cc2c(cn1)ncn2C` [Compound 227, N-(3-ethyl-4-(methyl(1-methyl-1H-imidazo[4,5-c]pyridin-6-yl)amino)benzyl)cyclopro-panesulfonamide], for which the IC50 is 501 to 1000 nM in experiment [1]; above 5 µM in the experiment on BA/F3 cell line; 0.01 to 100 nM at human JAK1; above 1000 nM in the experiment on CTLL-2 cell line; 501 to 1000 nM on human JAK3; 101 to 500 nM on human TYK2.
Take `CCc1cc(CNS(=O)(=O)CC#N)ccc1N(C)c1cc2c(cn1)ncn2C` [Compound 228, 1-cyano-N-(3-ethyl-4-(methyl(1-methyl-1H-imidazo[4,5-c]pyridin-6-yl)amino)benzyl)methane-sulfonamide]: the IC50 in experiment [1] (Homo sapiens, HeLa) was 1 to 500 nM; in the experiment with BA/F3 cell line, above 5 µM; at human JAK1, 0.01 to 100 nM; with CTLL-2 cell line, 1 to 500 nM; on human JAK3 it was 0.01 to 100 nM; at human TYK2, 0.01 to 100 nM.
For the compound `CCc1cc(C2=CCN(C(=O)C3(O)CC3)CC2)ccc1N(C)c1cc2c(cn1)ncn2C` [Compound 229, (4-(3-ethyl-4-(methyl(1-methyl-1H-imidazo[4,5-c]pyridin-6-yl)amino)phenyl)-5,6-dihydropyridin-1(2H)-yl)(1-hydroxycyclopropyl)meth-anone], the IC50 in experiment [1] (Homo sapiens, HeLa) is 1 to 500 nM; in the experiment on BA/F3 cell line it was 1 to 5 µM; on human JAK1, 0.01 to 100 nM; in the experiment with CTLL-2 cell line, above 1000 nM; on human JAK3, 101 to 500 nM; at human TYK2, 0.01 to 100 nM.
Take `CCc1cc(CNS(=O)(=O)N2CCCCC2)ccc1N(C)c1cc2c(cn1)ncn2C` [Compound 243, N-(3-ethyl-4-(methyl(1-methyl-1H-imidazo[4,5-c]pyridin-6-yl)amino)benzyl)piperidine-1-sulfonamide]: the IC50 in experiment [1] (Homo sapiens, HeLa) was 1 to 500 nM; with BA/F3 cell line, 1 to 5 µM; at human JAK1 it was 0.01 to 100 nM; in the experiment on CTLL-2 cell line it was above 1000 nM; on human JAK3 it was 101 to 500 nM; at human TYK2, 101 to 500 nM.
Regarding `CCc1cc(CNS(=O)(=O)CC(F)(F)F)ccc1N(C)c1cc2c(cn1)ncn2C` [Compound 244, N-(3-ethyl-4-(methyl(1-methyl-1H-imidazo[4,5-c]pyridin-6-yl)amino)benzyl)-2,2,2-trifluoroethane sulfonamide], the IC50 was 1 to 500 nM in experiment [1] (Homo sapiens, HeLa); 1 to 5 µM in the experiment with BA/F3 cell line; 0.01 to 100 nM at human JAK1; above 1000 nM with CTLL-2 cell line; 0.01 to 100 nM on human JAK3; 0.01 to 100 nM on human TYK2.
Regarding `CCc1cc(CNS(=O)(=O)C(C)C)ccc1N(C)c1cc2c(cn1)ncn2C` [Compound 245, N-(3-ethyl-4-(methyl(1-methyl-1H-imidazo[4,5-c]pyridin-6-yl)amino)benzyl)propane-2-sulfonamide], the IC50 in experiment [1] (Homo sapiens, HeLa) is 501 to 1000 nM; in the experiment on BA/F3 cell line, 1 to 5 µM; on human JAK1, 0.01 to 100 nM; in the experiment on CTLL-2 cell line it was above 1000 nM; on human JAK3, 101 to 500 nM; at human TYK2, 101 to 500 nM.
As for `CCc1cc(C2=CCN(C(=O)[C@@H](C)O)CC2)ccc1N(C)c1cc2c(cn1)ncn2C` [Compound 248, (R)-1-(4-(3-ethyl-4-(methyl(1-methyl-1H-imidazo[4,5-c]pyridin-6-yl)amino)phenyl)-5,6-dihydropyridin-1(2H)-yl)-2-hydroxypropan-1-one], the IC50 in experiment [1] (Homo sapiens, HeLa) is 1 to 500 nM; with BA/F3 cell line, 1 to 5 µM; on human JAK1 it was 0.01 to 100 nM; with CTLL-2 cell line, above 1000 nM; on human JAK3, 0.01 to 100 nM; on human TYK2, 0.01 to 100 nM.
Turning to `CCc1cc(CNS(=O)(=O)CC)ccc1N(C)c1cc2c(cn1)ncn2C` [Compound 253, N-(3-ethyl-4-(methyl(1-methyl-1H-imidazo[4,5-c]pyridin-6-yl)amino)benzyl)ethane-sulfonamide], the IC50 in experiment [1] (Homo sapiens, HeLa) was 1 to 500 nM; in the experiment with BA/F3 cell line, above 5 µM; on human JAK1, 0.01 to 100 nM; with CTLL-2 cell line, above 1000 nM; at human JAK3 it was 0.01 to 100 nM; at human TYK2, 0.01 to 100 nM.
With `CCc1cc(CNC(=O)COC)ccc1N(C)c1cc2c(cn1)ncn2C` [Compound 254, N-(3-Ethyl-4-(methyl(1-methyl-1H-imidazo[4,5-c]pyridin-6-yl)amino)benzyl)-2-methoxyacetamide], the IC50 in experiment [1] (Homo sapiens, HeLa) is above 1000 nM; in the experiment on BA/F3 cell line, above 5 µM; at human JAK1, 0.01 to 100 nM; with CTLL-2 cell line, above 1000 nM; at human JAK3 it was above 1000 nM; at human TYK2 it was above 1000 nM.
With `CCc1cc(CNC(=O)C(F)F)ccc1N(C)c1cc2c(cn1)ncn2C` [Compound 256, N-(3-ethyl-4-(methyl(1-methyl-1H-imidazo[4,5-c]pyridin-6-yl)amino)benzyl)-2,2-difluoroacetamide], the IC50 is 1 to 500 nM in experiment [1] (Homo sapiens, HeLa); above 5 µM in the experiment with BA/F3 cell line; 0.01 to 100 nM at human JAK1; above 1000 nM with CTLL-2 cell line; 0.01 to 100 nM on human JAK3; 101 to 500 nM on human TYK2.
As to `CCc1cc(CN2CCCS2(=O)=O)ccc1N(C)c1cc2c(cn1)ncn2C` [Compound 262, [4-(1,1-Dioxoisothiazolidin-2-ylmethyl)-2-ethyl-phenyl]-methyl-(1-methyl-1H-imidazo[4,5-c]pyridin-6-yl)-amine], the IC50 was 1 to 500 nM in experiment [1]; 1 to 5 µM in the experiment with BA/F3 cell line; 0.01 to 100 nM on human JAK1; above 1000 nM in the experiment on CTLL-2 cell line; 101 to 500 nM on human JAK3; 101 to 500 nM on human TYK2.
Turning to `CN(c1cc2c(cn1)ncn2C)c1ccc(-c2cnn(C)c2)cc1OC(F)F` [Compound 274, N-(2-(Difluoromethoxy)-4-(1-methyl-1H-pyrazol-4-yl)phenyl)-N,1-dimethyl-1H-imidazo[4,5-c]pyridin-6-amine], the IC50 in experiment [1] is 1 to 500 nM; with BA/F3 cell line it was 1 to 5 µM; at human JAK1, 0.01 to 100 nM; in the experiment on CTLL-2 cell line, above 1000 nM; on human JAK3, 101 to 500 nM; at human TYK2 it was 0.01 to 100 nM.
Regarding `CCc1cc(-c2cnn(C)c2)ncc1N(C)c1cc2c(cn1)ncn2C` [Compound 280, N-(4-Ethyl-6-(1-methyl-1H-pyrazol-4-yl)pyridin-3-yl)-N,1-dimethyl-1H-imidazo[4,5-c]pyridin-6-amine], the IC50 was above 1000 nM in experiment [1]; above 5 µM in the experiment on BA/F3 cell line; 0.01 to 100 nM at human JAK1; above 1000 nM with CTLL-2 cell line; above 1000 nM on human JAK3; 101 to 500 nM at human TYK2.
